In this data set the test system is human liver microsomes, compound remaining, LC-MS. As to the kind of experiment: metabolic stability in human liver microsomes, ADME assay, biochemical, with and without NADPH, LC-MS, set 2 (AID 624452).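 For all read-outs here: compound left measured after 60 min microsomal incubation at 37 °C.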 The note with it: at 1 µM; for percent remaining without NADPH: measured here: stability without NADPH control.

In the case of `Cc1cc(C)nc(-n2nc(C)c(Sc3ccc(F)cc3)c2N)n1`, the percent remaining with NADPH came to 13.4% and the percent remaining without NADPH was 79.4%.

For `COc1nc(-c2ccccc2)nnc1-c1ccccc1`, the percent remaining with NADPH came to 8.41% and the percent remaining without NADPH came out at 59.3%.

For the compound `CCOc1ccc(NC(=S)N2CCC(C(O)(c3ccccc3)c3ccccc3)CC2)cc1`, the percent remaining with NADPH came to 22.7% and the percent remaining without NADPH was 62%.

Compound `CC(C)C(=O)NC(c1ccco1)c1ccc2cccnc2c1O` (centres undefined) showed a percent remaining with NADPH of 49.2% and a percent remaining without NADPH of 76.4%.

Compound `CCN1CCN(c2nc3ccccc3nc2C(C#N)C(=O)OC2CCCCC2)CC1` (centres undefined) yielded a percent remaining with NADPH of 14.2% and a percent remaining without NADPH of 80.8%.

In the case of `C=CCn1c(SCC(=O)c2ccc(O)c(O)c2)nnc1-c1ccccc1OC`, the percent remaining with NADPH is 30.6% and the percent remaining without NADPH stood at 65%.

The compound `Brc1ccc2c(c1)CN1CCCC1=N2` displayed a percent remaining with NADPH of 56.4% and a percent remaining without NADPH of 77.8%.

Turning to `CCc1nnc(NC(=O)c2ccc(NS(=O)(=O)c3ccccc3)cc2)s1`, the percent remaining with NADPH stood at 69.2% and the percent remaining without NADPH stood at 76.8%.

With `O=[N+]([O-])c1ccc(CN2CCOCCOCCN(Cc3ccc([N+](=O)[O-])cc3)CCOCC2)cc1`, the percent remaining with NADPH came to 0.31% and the percent remaining without NADPH amounted to 72.8%.

Compound `O=c1oc2c(O)c(O)cc3c(=O)oc4c(O)c(O)cc1c4c23` registered a percent remaining with NADPH of 73.1% and a percent remaining without NADPH of 93.1%.

On to `C/C=C/Cn1c(SCCCc2ccccc2)nc2c1c(=O)[nH]c(=O)n2C`, for which the percent remaining with NADPH was found to be 1.64% and the percent remaining without NADPH was 69.3%.

In turn, `CCCN1CNc2c(c(=O)[nH]c(=S)n2CCc2ccc(OC)c(OC)c2)C1` showed a percent remaining with NADPH of 48.6% and a percent remaining without NADPH of 65%.

The compound `CCCc1nc2c(=O)n(C)c(=O)nc-2n(C)n1` registered a percent remaining with NADPH of 65.6% and a percent remaining without NADPH of 61.5%.

`Cc1ccc(S(=O)(=O)C(c2ccccc2)c2c(C)noc2C)cc1` (centres undefined): the percent remaining with NADPH worked out at 0.08% and the percent remaining without NADPH turned out to be 69.4%.

For the compound `NC(=O)C1CCN(c2nc(-c3ccc(Br)cc3)cs2)CC1`, the percent remaining with NADPH was 56.9% and the percent remaining without NADPH stood at 62%.

In turn, `Cc1cccc(-n2cnc3cc(C(=O)N4CCCCC4)ccc32)c1` registered a percent remaining with NADPH of 37.9% and a percent remaining without NADPH of 70%.

Take `O=S1(=O)Nc2c(ccc3cccnc23)-c2ccccc21`: the percent remaining with NADPH stood at 64.4% and the percent remaining without NADPH was 68%.

`Cc1nc(SCc2nc3ccccc3[nH]2)c2oc3ccccc3c2n1`: the percent remaining with NADPH was 0.22% and the percent remaining without NADPH turned out to be 70.5%.

The compound `O=S(=O)(NC1CCCCC1N1CCOCC1)c1ccc(Cl)cc1` (centres undefined) returned a percent remaining with NADPH of 0.11% and a percent remaining without NADPH of 78.2%.

In turn, `Cc1ccc(S(=O)(=O)n2c(N)nc3ccccc32)cc1` yielded a percent remaining with NADPH of 21% and a percent remaining without NADPH of 79.3%.

`Cc1ccc(C(=O)n2c3ccccc3c3ccccc32)cc1` displayed a percent remaining with NADPH of 24% and a percent remaining without NADPH of 48.7%.

`CC(=O)c1ccc(N2CCN(S(=O)(=O)c3ccc4c(c3)CC(=O)N4)CC2)cc1` showed a percent remaining with NADPH of 49% and a percent remaining without NADPH of 69.8%.

Compound `COc1ccccc1N(/N=C1\Sc2ccccc2C1=O)C(C)=O` displayed a percent remaining with NADPH of 0.32% and a percent remaining without NADPH of 68.5%.

`Cc1ccc(C)c(NS(=O)(=O)c2cc(C(=O)Nc3ccccc3-c3ccccc3)ccc2Cl)c1`: the percent remaining with NADPH was 2.07% and the percent remaining without NADPH came to 75.9%.

For the compound `CCCn1ncc(CN2CCCC(C(=O)c3cccc(OC(C)C)c3)C2)c1C` (centres undefined), the percent remaining with NADPH was found to be 1.55% and the percent remaining without NADPH was 79.4%.

As to `O=C(O)c1ccccc1OCc1ccccc1Br`, the percent remaining with NADPH was 67.3% and the percent remaining without NADPH came out at 70%.

`c1ccc2c(Nc3nnc(-c4ccncc4)s3)cccc2c1` came in with a percent remaining with NADPH of 8.76% and a percent remaining without NADPH of 72.1%.

Consider `Brc1cc2c(cc1C1Nc3ccccc3C3C=CCC31)OCO2` (centres undefined), for which the percent remaining with NADPH turned out to be 28.7% and the percent remaining without NADPH stood at 65.5%.

`O=C(O)c1cccnc1SCCc1ccccc1` yielded a percent remaining with NADPH of 61.4% and a percent remaining without NADPH of 74.9%.

With `Cc1ccc(NS(=O)(=O)c2ccc3c(c2)CCC(=O)N3)cc1C`, the percent remaining with NADPH was 6.36% and the percent remaining without NADPH turned out to be 66.3%.

Take `N#Cc1ccccc1CSc1nc2ncc(Br)cc2[nH]1`: the percent remaining with NADPH came to 29.7% and the percent remaining without NADPH was found to be 79.3%.

Take `O=c1[nH]c(SCc2ccc(Cl)cc2)nc2c1CCC2`: the percent remaining with NADPH was 12.6% and the percent remaining without NADPH is 78.5%.

`Cc1ccc(C)c(OCCn2cc(C(=O)O)c3ccccc32)c1` yielded a percent remaining with NADPH of 35.8% and a percent remaining without NADPH of 66.7%.

As to `COc1ccc(S(=O)(=O)N2CCN(S(=O)(=O)c3ccc4c(c3)OCCO4)CC2)cc1`, the percent remaining with NADPH was 0.64% and the percent remaining without NADPH came to 55.8%.

Consider `CCCc1cc(C(=O)N(C2CCCCC2)C2CCCCC2)no1`, for which the percent remaining with NADPH was found to be 5.27% and the percent remaining without NADPH turned out to be 57.6%.

`Cc1cc(-c2nnc3n2CCCCC3)c(C)n1-c1ccccc1`: the percent remaining with NADPH stood at 25.2% and the percent remaining without NADPH stood at 74.8%.

With `Cc1ccc(NC(=O)CCC(=O)N/N=C/c2ccc([N+](=O)[O-])o2)cc1C`, the percent remaining with NADPH was determined as 37.5% and the percent remaining without NADPH was determined as 72.6%.

The compound `COc1ccc(OC)c(S(=O)(=O)Nc2cnc3ccccc3c2)c1` yielded a percent remaining with NADPH of 25.9% and a percent remaining without NADPH of 71.5%.

As to `CSc1nc(-c2ccc(C)cc2)nc(C(Cl)Cl)n1`, the percent remaining with NADPH was found to be 10.8% and the percent remaining without NADPH worked out at 42.1%.

`Cn1cnc([N+](=O)[O-])c1Sc1ncnc2nc[nH]c12` gave a percent remaining with NADPH of 66.6% and a percent remaining without NADPH of 66.4%.

In the case of `c1ccc(CC2CCN(c3ncnc4sccc34)CC2)cc1`, the percent remaining with NADPH was found to be 9.66% and the percent remaining without NADPH came to 54.9%.

Compound `O=C(COc1ccccc1Br)NCCc1nc2ccccc2[nH]1` registered a percent remaining with NADPH of 0.04% and a percent remaining without NADPH of 79.6%.

`O=C(CCNS(=O)(=O)c1cccc2nsnc12)N1CCN(c2ccccn2)CC1` yielded a percent remaining with NADPH of 3.36% and a percent remaining without NADPH of 71.8%.

Take `Cc1cc(C(=O)CN2C(=O)CCC2=O)c(C)n1Cc1ccccc1`: the percent remaining with NADPH was 34.5% and the percent remaining without NADPH was determined as 72.6%.

The compound `N#C/C(=C\c1ccc([N+](=O)[O-])o1)c1nc2ccccc2[nH]1` had a percent remaining with NADPH of 0.29% and a percent remaining without NADPH of 52.4%.

Turning to `Oc1cc(O)cc(/C=C/c2ccc(O)c(O)c2)c1`, the percent remaining with NADPH was determined as 45.9% and the percent remaining without NADPH was 87.6%.

As for `CCOc1ccc(-c2nc(-c3ccncc3)no2)cc1OCC`, the percent remaining with NADPH stood at 25.1% and the percent remaining without NADPH was 70.3%.
